Test results taken from ChEMBL document CHEMBL1146553, “Antiparasitic alkaloids from Psychotria klugii” (J Nat Prod, 2003).
Values after ≈ are worked out from the molar mass of the structure shown. Active and inactive are the calls of the source. The calls are words filed in the database; no cut-off is given here.

Key:
in vitro [1] = conditions: monkey, Vero cells
Description: Selectivity index, ratio of IC50 for african green monkey (Cercopithecus aethiops) Vero cells to IC50 for chloroquine-resistant Plasmodium falciparum W2

in vitro [2] = conditions: monkey, Vero cells; remark: listed apart in the source
Description: Selectivity index, ratio of IC50 for african green monkey (Cercopithecus aethiops) Vero cells to IC50 for chloroquine-sensitive Plasmodium falciparum D6

Leishmania donovani = experiment: Antileishmanial activity against Leishmania donovani promastigotes after 72 hrs; type: functional, organism-based
Vero [3] = experiment: Cytotoxicity against african green monkey Vero cells at 10 ug/ml; type: cell-based; conditions: chlorocebus sabaeus
Plasmodium falciparum [4] = experiment: Antimalarial activity against chloroquine-resistant Plasmodium falciparum W2 by LDH reporter assay; type: functional, organism-based
Plasmodium falciparum [5] = experiment: Antimalarial activity against chloroquine-sensitive Plasmodium falciparum D6 by LDH reporter assay; type: functional, organism-based
BT-549 = experiment: Cytotoxicity against human BT549 cells; type: functional, cell-based
SK-OV-3 = experiment: Cytotoxicity against human SKOV3 cells; type: functional, cell-based
[6] = biological target: T1, Integrin alpha-L (Homo sapiens) (UniProt P20701); experiment: Inhibition of LFA1:CD11a/CD18/ICAM1- mediated aggregation in PMA-induced human HL60 cells; type: cell-based; conditions: HL-60
T1 sequence (whole entry): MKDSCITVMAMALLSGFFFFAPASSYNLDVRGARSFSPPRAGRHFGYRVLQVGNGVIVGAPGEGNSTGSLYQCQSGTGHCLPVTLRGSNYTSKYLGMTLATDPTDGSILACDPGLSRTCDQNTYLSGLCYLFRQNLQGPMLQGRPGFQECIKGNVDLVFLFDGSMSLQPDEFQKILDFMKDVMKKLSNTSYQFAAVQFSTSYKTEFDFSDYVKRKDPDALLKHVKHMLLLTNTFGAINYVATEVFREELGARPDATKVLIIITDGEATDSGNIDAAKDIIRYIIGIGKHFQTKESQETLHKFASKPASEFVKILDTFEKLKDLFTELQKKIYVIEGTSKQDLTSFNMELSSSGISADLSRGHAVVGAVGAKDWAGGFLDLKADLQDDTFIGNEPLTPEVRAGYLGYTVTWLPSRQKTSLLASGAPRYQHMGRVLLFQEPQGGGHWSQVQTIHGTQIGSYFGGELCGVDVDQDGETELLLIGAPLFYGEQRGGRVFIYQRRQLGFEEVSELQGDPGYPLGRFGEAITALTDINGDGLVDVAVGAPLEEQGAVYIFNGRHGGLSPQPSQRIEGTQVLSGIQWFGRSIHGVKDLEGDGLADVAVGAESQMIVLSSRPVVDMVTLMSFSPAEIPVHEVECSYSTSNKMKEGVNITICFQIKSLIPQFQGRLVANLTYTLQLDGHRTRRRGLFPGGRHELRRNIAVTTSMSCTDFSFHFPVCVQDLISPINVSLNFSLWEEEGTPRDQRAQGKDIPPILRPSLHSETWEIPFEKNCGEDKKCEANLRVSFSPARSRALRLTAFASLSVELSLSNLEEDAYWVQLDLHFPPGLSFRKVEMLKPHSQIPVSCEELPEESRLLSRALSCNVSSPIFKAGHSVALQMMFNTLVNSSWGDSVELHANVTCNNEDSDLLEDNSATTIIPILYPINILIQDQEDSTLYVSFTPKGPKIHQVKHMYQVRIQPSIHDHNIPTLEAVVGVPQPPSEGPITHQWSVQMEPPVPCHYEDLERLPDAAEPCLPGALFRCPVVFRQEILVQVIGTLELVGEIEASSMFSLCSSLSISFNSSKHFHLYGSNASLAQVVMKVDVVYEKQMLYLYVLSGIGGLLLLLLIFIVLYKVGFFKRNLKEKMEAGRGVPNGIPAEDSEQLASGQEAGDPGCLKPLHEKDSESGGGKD

KB = experiment: Cytotoxicity against human KB cells; type: functional, cell-based
SK-MEL = experiment: Cytotoxicity against human SK-MEL cells; type: functional, cell-based
[7] = Specific index, ratio of IC50 for human HL60 cells to MIC for LFA1:CD11a/CD18/ICAM1- mediated aggregation in PMA-induced human HL60 cells; type: functional, HL-60
HL-60 = experiment: Cytotoxicity against human HL60 cells by XTT assay; type: functional, cell-based
Vero [8] = experiment: Cytotoxicity against african green monkey Vero cells; type: cell-based; conditions: chlorocebus sabaeus
[9] = Specific index, ratio of IC50 for human HL60 cells to MIC for LFA1:CD11a/CD18/ICAM1-mediated human HL60 cell adhesion to human HeLa cells; type: functional
[10] = biological target: T1, Integrin alpha-L (Homo sapiens); experiment: Inhibition of LFA1:CD11a/CD18/ICAM1-mediated human HL60 cell adhesion to human HeLa cells expressing ICAM1 by fluorescence analysis; type: cell-based

Structure (SMILES)	selectivity ratio (in vitro [1])	selectivity ratio (in vitro [2])	IC50 (Leishmania donovani)	IC90 (Leishmania donovani)	Activity (Vero [3])	IC50 (Plasmodium falciparum [4])	IC50 (Plasmodium falciparum [5])	IC50 (BT-549)	IC50 (SK-OV-3)	MIC [6]	IC50 (KB)	IC50 (SK-MEL)	Ratio [7]	IC50 (HL-60)	IC50 (Vero [8])	Ratio [9]	Activity [10]
CC[C@H]1CN2CCc3cc(OC)c(OC)cc3[C@@H]2C[C@@H]1C[C@@H]1NCCc2cc(O)c(O)cc21	> 3	> 7	7.5 µg/mL (≈ 16.6 µM)	19 µg/mL (≈ 42 µM)	Non-toxic	3.07 µg/mL (≈ 6.78 µM)	1.5 µg/mL (≈ 3.31 µM)										
C[C@@H]1[C@H](O)[C@@H](C)/C=C/C=C/C=C/C=C/C=C/C=C/C=C/[C@H](O[C@@H]2O[C@H](C)[C@@H](O)[C@H](N)[C@@H]2O)C[C@@H]2O[C@](O)(C[C@@H](O)C[C@@H](O)[C@H](O)CC[C@@H](O)C[C@@H](O)CC(=O)O[C@H]1C)C[C@H](O)[C@H]2C(=O)O [AMPHOTERICIN B]			0.17 µg/mL (≈ 0.184 µM)	0.28 µg/mL (≈ 0.303 µM)													
C[C@@H]1CC[C@H]2[C@@H](C)C(=O)O[C@@H]3O[C@@]4(C)CC[C@@H]1[C@]32OO4 [ARTEMISININ]	> 1180	> 699			Non-toxic	0.0085 µg/mL (≈ 0.0301 µM)	0.0143 µg/mL (≈ 0.0506 µM)										
CC[C@H]1CN2CCc3cc(OC)c(OC)cc3[C@@H]2C[C@@H]1C[C@H]1NCCc2cc(O)c(OC)cc21 [CEPHAELINE]	193	132	0.03 µg/mL (≈ 0.0643 µM)	1.5 µg/mL (≈ 3.21 µM)		0.0277 µg/mL (≈ 0.0594 µM)	0.038 µg/mL (≈ 0.0814 µM)	0.86 µg/mL (≈ 1.84 µM)	0.18 µg/mL (≈ 0.386 µM)	6.9 µg/mL (≈ 14.8 µM)	0.33 µg/mL (≈ 0.707 µM)	0.25 µg/mL (≈ 0.536 µM)	2.17	14.9 µg/mL (≈ 31.9 µM)	5.3 µg/mL (≈ 11.4 µM)		
CCN(CC)CCCC(C)Nc1ccnc2cc(Cl)ccc12 (centres undefined) [CHLOROQUINE]					Non-toxic												
C=C1[C@@H](C)[C@H]2[C@H](Cc3ccccc3)NC(=O)[C@]23OC(=O)/C=C/[C@H](O)CCC[C@@H](C)C/C=C/[C@H]3[C@@H]1O [CYTOCHALASIN B]										2.5 µg/mL (≈ 5.21 µM)			13	> 30 µg/mL		>5.5	
COc1cccc2c1C(=O)c1c(O)c3c(c(O)c1C2=O)C[C@@](O)(C(=O)CO)C[C@@H]3O[C@H]1C[C@H](N)[C@H](O)[C@H](C)O1 [DOXORUBICIN]								1 µg/mL (≈ 1.84 µM)	1.53 µg/mL (≈ 2.81 µM)		1.7 µg/mL (≈ 3.13 µM)	1.57 µg/mL (≈ 2.89 µM)					
CC[C@H]1CN2CCc3cc(OC)c(OC)cc3[C@@H]2C[C@@H]1C[C@H]1NCCc2cc(OC)c(OC)cc21 [EMETINE]	5	6	0.03 µg/mL (≈ 0.0624 µM)	0.13 µg/mL (≈ 0.27 µM)		0.078 µg/mL (≈ 0.162 µM)	0.0727 µg/mL (≈ 0.151 µM)			0.26 µg/mL (≈ 0.541 µM)			1.53	0.38 µg/mL (≈ 0.791 µM)	0.42 µg/mL (≈ 0.874 µM)		
CC[C@H]1CN2CCc3cc(OC)c(OC)cc3[C@@H]2C[C@@H]1C[C@@H]1NCCc2cc(O)c(OC)cc21 [ISOCEPHAELINE]	> 35	> 54	0.45 µg/mL (≈ 0.964 µM)	0.98 µg/mL (≈ 2.1 µM)	Non-toxic	0.29 µg/mL (≈ 0.621 µM)	0.187 µg/mL (≈ 0.4 µM)	> 10 µg/mL	> 10 µg/mL		> 10 µg/mL	> 10 µg/mL					
CC[C@H]1CN2CCc3cc(O)c(OC)cc3[C@@H]2C[C@@H]1C[C@@]1(O)NCCc2cc(O)c(OC)cc21 [KLUGINE]	> 217	> 265	0.4 µg/mL (≈ 0.854 µM)	2.5 µg/mL (≈ 5.34 µM)	Non-toxic	0.0463 µg/mL (≈ 0.0988 µM)	0.0377 µg/mL (≈ 0.0805 µM)	> 10 µg/mL	> 10 µg/mL	20.8 µg/mL (≈ 44.4 µM)	> 10 µg/mL	> 10 µg/mL	1.2	25 µg/mL (≈ 53.4 µM)			inactive
N=C(N)c1ccc(OCCCCCOc2ccc(C(=N)N)cc2)cc1 [PENTAMIDINE]				2.4 µg/mL (≈ 7.05 µM)													
